According to patent US5466717A, “Halogenated 4'-methoxyacetophenones as microbicides and preservatives” (Buckman Laboratories Int'l, Inc., priority 1993, dated 1995):
Values after ≈ are worked out from the molar mass of the structure shown. Read-outs that look alike come from different tables or passages of the source.

Assays:
[1] = tested on: ALGAE; assay: Long term control of algal growth on a paint film, ASTM D3456 (Table 8); conditions: latex paint on Southern yellow pine, 5 years and 5 months
Experimental: (§1) The effectiveness of halogenated 4'-methoxyacetophenones were evaluated for long term control of fungal and algal growth on a paint film following ASTM Procedure #D3456 (ASTM, 1916 Race St., Philadelphia, Pa. 19103). The test compared the effectiveness of compound 2, 2,2,3'-tribromo-4'-methoxyacetophenone, in latex paint with the commercially available biocides such as Nopcocide-96, and Troysan Polyphase over a period of 5 years and 5 months. The test paint was brush-applied (2 coats) over Southern yellow pine panels. A minimum of 24 hours was allowed between coats. The panels were rated based on the ASTM Procedure #D3274: […]

[2] = tested on: Desulfovibrio desulfuricans; assay: Effectiveness against sulfate reducing bacterium, Method API Rp 38 (Table 7); type: cell-based; set-up: key: 4: excellent; 3: good; 2: poor; 1: very poor, scant, questionable; 0: no growth; conditions: pH 7.0, duplicates
Experimental: The effectiveness of compounds 1 and 2 against Desulfovibrio desulfuricans,a sulfate reducing bacterium, was determined using the method recommended by the American Petroleum Institute (Method API Rp 38). The composition of the sulfate-reducer medium for the bacteriostatic test is as follows: The ingredients are dissolved by gentle heating with constant stirring. […] If necessary, the medium is then filtered through Whatman No. 1 or No. 2 filter paper. Following filtration, the medium is autoclaved at 15 lb steam pressure for […]. After autoclaving, the medium is allowed to cool slightly and the iron salt, Fe(SO4)2 (NH4)2.6H2 O, is added. The pH is then checked and readjusted if necessary. The medium is now cooled to room temperature as rapidly as possible, without agitation. After cooling, the medium is inoculated from the third successive 24-hour transfer of an actively growing culture (a liquid culture which turns black within 24 hours after inoculation) of sulfate-reducing bacteria. Ten milliliters of inoculum are added to each liter of medium. From stock solutions of the chemical to be screened, sufficient amounts of the compounds are added to 1- or 2-oz clear bottles so that the desired concentrations of chemicals are present when the containers are filled. The amount of stock solution added cannot exceed 10 percent of the volume of the test bottle. After addition of the chemical, the bottles are completely filled with the inoculated medium. The bottles are then capped with plastic caps containing cork and aluminum foil or Teflon liners and are incubated at 30°±2° C. All work is done in duplicate with at least three controls for each series. The controls consist of bottles filled with inoculated medium only. Growth of sulfate-reducing bacteria in the bottles is indicated by an intense blackening of the medium, whereas containers having sufficient chemical to inhibit growth will remain clear. Bottles with no sulfate-reducing bacteria growth are observed for a period of 28 days after the controls have blackened. The results were recorded using a +/0 scale where "+" indicates growth and "0" indicates no growth.

[3] = tested on: Chlorella pyrenoidosa; assay: Growth inhibition of algae in Difco Algae Broth (Table 6); type: cell-based; conditions: Auxenochlorella pyrenoidosa, 672 h, read-out: Minimum inhibitory concentration
Experimental: The growth-inhibiting activity of the method of the invention against the algae Chlorella pyrenoidosa was evaluated at two different pH levels in Difco Algae Broth. The content of the broth was as follows: Forty-gram portions of the algae medium were added to 250 mL Erlenmeyer flasks fitted with loose metal caps and were then sterilized. Each of the following substances was then added to the flasks in the order listed: (1) Sterile algae medium as required to bring the total weight of the contents of each flask to 50 grams, after allowing for all subsequent additions specified below. (2) A solution of the toxicant or of a control agent to be evaluated in each test, to give the concentration desired in parts per million by weight. (3) Chlorella pyrenoidosa, in amounts sufficient to give excellent growth in the controls after 14 days. This was achieved by adding 1 milliliter of a 14 day old culture having luxuriant growth. The Chlorella pyrenoidosa culture was obtained from American Type Culture Collection No. 7516. Control experiments were carried out where no toxicants were employed. In the algicidal tests the growth of algae in the nutrient is lush green and can be seen with the naked eye. Since the minimum inhibitory concentrations of the compounds in this example are those which result in complete inhibition, evaluation of the test results is not subjective. After the inoculum of the test algae was added, the flasks were incubated at a temperature of 28°±2° C. under fluorescent illumination of 250 foot-candle intensity (8 hours light, 16 hours darkness) for a period adequate for growth in the controls (those portions of medium which contained no toxicant). Observations of growth were made at 7-day intervals. Minimum inhibitory concentrations are those that prevented complete growth after 28 days.

[4] = tested on: FUNGI; assay: Long term control of fungal growth on a paint film, ASTM D3456 (Table 8); conditions: latex paint on Southern yellow pine, 5 years and 5 months
Experimental: as §1

| Structure (SMILES) | ALGAE rating in paint film preservation ([1]; 0.25%) | ALGAE rating in paint film preservation ([1]; 0.5%) | growth of Desulfovibrio desulfuricans ([2]; 4 ppm) | growth of Desulfovibrio desulfuricans ([2]; 8 ppm) | growth of Desulfovibrio desulfuricans ([2]; 10 ppm) | growth of Desulfovibrio desulfuricans ([2]; 15 ppm) | growth of Desulfovibrio desulfuricans ([2]; 20 ppm) | MIC ([3]; pH 7.0, 28 days) [µg/mL] | MIC ([3]; pH 8.0, 28 days) [µg/mL] | FUNGI rating in paint film preservation ([4]; 0.25%) | FUNGI rating in paint film preservation ([4]; 0.5%) |
| --- | --- | --- | --- | --- | --- | --- | --- | --- | --- | --- | --- |
| COc1ccc(C(=O)C(Br)Br)cc1Br [Compound 2, 2,2,3'-tribromo-4'-methoxyacetophenone] | 6.0 | 5.0 | 0 | 0 | 0 | 0 | 0 | 8 (≈ 20.7 µM) | 4 (≈ 10.3 µM) | 5.0 | 5.0 |
| COc1ccc(C(=O)CBr)cc1Br [Compound 1, 2,3'-dibromo-4'-methoxyacetophenone] | – | – | 0 | – | 0 | 0 | 0 | 4 (≈ 13 µM) | 2 (≈ 6.49 µM) | – | – |
